Data taken from paper PMC5118987 (Antimicrobial Agents and Chemotherapy, 2016).

Legend:
in vitro [1] = details: human
Influenza A/PC/1/73 = assay: microbe, parasite or virus in culture; type: cell-based; details: NHBE
Influenza B/LEE/40 = assay: microbe, parasite or virus in culture; type: cell-based; details: NHBE
HIV-2 CDC 310319 = assay: Antiviral assay against HIV-2 isolate in fresh human PBMCs (RT endpoint); details: Human immunodeficiency virus 2, PBMC
HIV-1 clinical isolates = assay: Antiviral assay against HIV-1 clinical isolates in fresh human PBMCs (RT endpoint)
HCV 1b Replicon = assay: Anti-HCV activity, HCV 1b replicon; details: Hepatitis C virus, Huh-7
HCV 2a Replicon = assay: Anti-HCV activity, HCV 2a replicon; details: Hepatitis C virus, Huh-7
in vitro [2] = details: human; remark: listed apart in the source
in vitro [3] = details: human; remark: listed apart in the source
[4] = test system: HRV (mixture of HRV1A, HRV14, HRV16); assay: microbe, parasite or virus in culture; type: cell-based; details: Human rhinovirus sp., H1-HeLa
in vitro [5] = details: human; remark: listed apart in the source
RSV strain A2 = assay: microbe, parasite or virus in culture; type: cell-based, respiratory syncytial virus; details: read-out: EC50

Nc1nc2c(ncn2[C@@H]2O[C@H](CO)[C@@H](O)[C@H]2F)c(=O)[nH]1 [2'-FDG, 2′-fluoro-2′-deoxyguanosine]
CC50 (in vitro [1]): > 100000 nM
EC50 (Influenza A/PC/1/73): 6000 nM
EC50 (Influenza B/LEE/40): 14000 nM

Cc1cn([C@H]2C[C@H](N=[N+]=[N-])[C@@H](CO)O2)c(=O)[nH]c1=O [AZT, zidovudine]
EC50 (HIV-2 CDC 310319): 9.3 ± 4.6 nM
EC50 (HIV-1 clinical isolates; Human immunodeficiency virus 1, BAL, PBMC, HIV-1 subtype B isolate BaL, human PBMCs): 3.8 ± 0.6 nM
EC50 (HIV-1 clinical isolates; Human immunodeficiency virus 1, PBMC, HIV-1 subtype A isolate 92RW016, human PBMCs): 2 ± 0.3 nM
EC50 (HIV-1 clinical isolates; Human immunodeficiency virus 1, PBMC, HIV-1 subtype A isolate 92UG037, human PBMCs): 11.2 ± 3.7 nM
EC50 (HIV-1 clinical isolates; Human immunodeficiency virus 1, PBMC, HIV-1 subtype B isolate 89BZ_167, human PBMCs): 3.6 ± 0.8 nM
EC50 (HIV-1 clinical isolates; Human immunodeficiency virus 1, PBMC, HIV-1 subtype B isolate 91US001, human PBMCs): 5.5 ± 2.5 nM
EC50 (HIV-1 clinical isolates; Human immunodeficiency virus 1, PBMC, HIV-1 subtype B isolate 91US004, human PBMCs): 2.6 ± 1.5 nM
EC50 (HIV-1 clinical isolates; Human immunodeficiency virus 1, PBMC, HIV-1 subtype C isolate 93IN905, human PBMCs): 1.6 ± 0.7 nM
EC50 (HIV-1 clinical isolates; Human immunodeficiency virus 1, PBMC, HIV-1 subtype C isolate 98US_MSC5016, human PBMCs): 7.9 ± 4.4 nM
EC50 (HIV-1 clinical isolates; Human immunodeficiency virus 1, PBMC, HIV-1 subtype D isolate 98UG_57128, human PBMCs): 0.07 ± 0.03 nM
EC50 (HIV-1 clinical isolates; Human immunodeficiency virus 1, PBMC, HIV-1 subtype E isolate 96TH_M02138, human PBMCs): 5.5 ± 0.4 nM
EC50 (HIV-1 clinical isolates; Human immunodeficiency virus 1, PBMC, HIV-1 subtype E isolate 96TH_NI1046, human PBMCs): 2.3 ± 0.7 nM
EC50 (HIV-1 clinical isolates; Human immunodeficiency virus 1, PBMC, HIV-1 subtype F isolate 93BR020, human PBMCs): 8.1 ± 7.1 nM

C[C@@]1(O)[C@H](O)[C@@H](CO)O[C@H]1n1cnc2c(N)ncnc21 [Compound 2-CMeA, 2′-C-methyladenosine]
EC50 (HCV 1b Replicon): 112 nM
EC50 (HCV 2a Replicon): 301 nM
CC50 (in vitro [2]): > 44000 nM
CC50 (in vitro [3]): 42200 nM

CCOC(=O)/C=C/[C@H](C[C@@H]1CCNC1=O)NC(=O)[C@@H](CC(=O)[C@@H](NC(=O)c1cc(C)on1)C(C)C)Cc1ccc(F)cc1 [Rupintrivir, rupintrivir]
EC50 [4]: 30 nM
CC50 (in vitro [5]): > 10000 nM

O=C(NC1CC1)c1cc2c(s1)-c1ccccc1N(C(=O)c1ccc(NC(=O)c3ccccc3-c3ccccc3)cc1)CC2 [YM-53403]
CC50 (HEp-2 Cells): > 50000 nM
EC50 (RSV strain A2): 350 nM
